Data from PMC6792352, “Limited Chemical Structural Diversity Found to Modulate Thyroid Hormone Receptor in the Tox21 Chemical Library” (Environmental Health Perspectives, 2019).
Where a name gives a salt, the structure may show the parent alone.

Test: in vitro
Settings: rat, gh3-tre-luc cells

| SMILES | CC50 at 24 h (AC50 (uM) modified / 1000) [µM] | also measured |
| --- | --- | --- |
| CN1[C@@H]2CC[C@H]1CC(O)C2 (stereo partly drawn) [Tropine] |  | CC50 at 24 h (AC50 (uM) modified / 1000, Tox21_110001=Tox21_202725, viability, 1 nM T3 present, 24 h): > 100 µM |
| C[N+]1(C)[C@@H]2CC[C@H]1CC(OC(=O)c1c[nH]c3ccccc13)C2 (stereo partly drawn) [Tropisetron methyliodide] | > 50 |  |
| CN1[C@@H]2CC[C@H]1C[C@@H](OC(=O)c1c[nH]c3ccccc13)C2 [Tropisetron] | 23.8 |  |
| O=c1cccccc1O [Tropolone] | 22.1 |  |
| O=C(O[C@H]1C[C@H]2CC[C@@H](C1)[N+]21CCCC1)C(O)(c1ccccc1)c1ccccc1 [Trospium chloride] | > 50 |  |
| N[C@@H]1[C@H]2CN(c3nc4c(cc3F)c(=O)c(C(=O)O)cn4-c3ccc(F)cc3F)C[C@@H]12 [Trovafloxacin mesylate] | 20.9 |  |
| Nc1ccn([C@@H]2CO[C@H](CO)O2)c(=O)n1 [Troxacitabine] | > 50 |  |
| C[C@@H]1O[C@@H](OC[C@H]2O[C@@H](Oc3c(-c4ccc(OCCO)c(OCCO)c4)oc4cc(OCCO)cc(O)c4c3=O)[C@H](O)[C@@H](O)[C@@H]2O)[C@H](O)[C@H](O)[C@H]1O [Troxerutin] | > 50 |  |
| COc1cc(C(=O)NC2CCCNC2)cc(OC)c1OC (stereo not drawn) [Troxipide] | > 50 |  |
| CC(C)(C)NCC(O)c1ccccc1Cl (stereo not drawn) [Tulobuterol hydrochloride] | > 50 |  |
| CC[C@H]1OC(=O)C[C@@H](O)[C@H](C)[C@@H](O[C@@H]2O[C@H](C)[C@@H](O[C@H]3C[C@@](C)(O)[C@@H](O)[C@H](C)O3)[C@H](N(C)C)[C@H]2O)[C@@H](CC=O)C[C@@H](C)C(=O)/C=C/C(C)=C/[C@@H]1CO[C@@H]1O[C@H](C)[C@@H](O)[C@@H](OC)[C@H]1OC [Tylosin tartrate] | > 50 |  |
| NCCc1ccc(O)cc1 [Tyramine hydrochloride] | > 90 |  |
| CC(C)C[C@@H]1NC(=O)[C@H](CCCN)NC(=O)[C@H](C(C)C)NC(=O)[C@H](Cc2ccc(O)cc2)N[C@@H](CCC(=O)O)C(=O)N[C@@H](CC(N)=O)C(=O)[C@@H](Cc2ccccc2)NC(=O)[C@H](Cc2ccccc2)NC(=O)[C@@H]2CCCN2C(=O)[C@@H](Cc2ccccc2)NC1=O [Tyrothricin] | 1.25 |  |
| N#CC(C#N)=Cc1ccc(O)c(O)c1 [Tyrphostin 23] | 16.8 |  |
| N#CC(C#N)=Cc1cc(O)c(O)c(O)c1 [Tyrphostin 25] | 28.5 |  |
| Cc1c(-c2cccnc2)c2ccccc2n1CCCCC(=O)O [UK-156819] | > 90 |  |
| COCc1nnc(-c2ccc[n+]([O-])c2)n1-c1c(Cl)c(Cl)cc2[nH]c(=O)c(=O)[nH]c12 [UK-333747] | > 90 |  |
| CN(C[C@@H](CC[N+]12CCC(C3CCCCC3)(CC1)CC2)c1ccc(Cl)c(Cl)c1)C(=O)c1cc(C(F)(F)F)cc(C(F)(F)F)c1 [UK-337312] | 17 |  |
| CCCOc1ccc(S(=O)(=O)N2CCN(CC)CC2)cc1-c1nc2c(CC)n(Cc3ccccn3)nc2c(=O)[nH]1 [UK-343664] | > 90 |  |
| CN[C@H]1CC[C@@H](c2ccc(Cl)c(Cl)c2)c2ccc(S(N)(=O)=O)cc21 [UK-373911] | 4.55 |  |
| CSc1ccc(Oc2ccc(S(N)(=O)=O)cc2CN(C)C)cc1C [UK-416244] | 36.3 |  |
| CC(C)C[C@H](NC(=O)[C@@H](O)[C@H](N)Cc1ccccc1)C(=O)O [Ubenimex hydrochloride] | 1.62 |  |
| COC1=C(OC)C(=O)C(C/C=C(\C)CC/C=C(\C)CC/C=C(\C)CC/C=C(\C)CC/C=C(\C)CC/C=C(\C)CC/C=C(\C)CC/C=C(\C)CC/C=C(\C)CCC=C(C)C)=C(C)C1=O [Ubidecarenone] | > 50 |  |
| O=C(Nc1ccc(/C=C/c2ccc(NC(=O)c3cc(S(=O)(=O)O)c4cccnc4c3O)cc2S(=O)(=O)O)c(S(=O)(=O)O)c1)c1cc(S(=O)(=O)O)c2cccnc2c1O [Ubistatin A] | > 50 |  |

| SMILES | CC50 at 24 h (AC50 (uM) modified / 1000) [µM] | also measured |
| --- | --- | --- |
| C=CCCCCCCCCC=O [Undec-10-enal] | > 90 |  |
| CCCCCCCCCCC=O [Undecanal] | > 90 |  |
| CCCCCCCCCCC [Undecane] | > 90 |  |
| O=C(O)CCCCCCCCCC(=O)O [Undecanedioic acid] | > 90 |  |
| CCCCCCCCCCC(=O)O [Undecanoic acid] | > 90 |  |
| CCCCCCC1CCCC(=O)O1 (stereo not drawn) [Undecanoic delta-lactone] | > 90 |  |
| CCCCCCCC(=O)CC[C@@H]1[C@@H](C/C=C\CCCC(=O)OC(C)C)[C@@H](O)C[C@H]1O [Unoprostone isopropyl ester] | 18 |  |
| Oc1ncc(N(CCCl)CCCl)c(O)n1 [Uracil mustard] | > 50 |  |
| O=c1cc[nH]c(=O)[nH]1 [Uracil] | > 90 |  |
| COc1ccccc1N1CCN(CCCNc2cc(=O)n(C)c(=O)n2C)CC1 [Urapidil] | > 50 |  |
| NC(N)=O [Urea] | > 100 |  |
| CCOC(N)=O [Urethane] | > 100 |  |
| O=c1ccn(C2OC(COP(=O)(O)OC3C(CO)OC(n4ccc(=O)[nH]c4=O)C3O)C(O)C2O)c(=O)[nH]1 (stereo not drawn) [Uricase from Bacillus fastidiosus] | > 50 |  |
| O=C(O)/C=C/c1c[nH]cn1 [Urocanic acid] | > 90 |  |
| CC(C)[C@H](N)C(=O)OCCOCn1cnc2c(=O)[nH]c(N)nc21 [Valacyclovir hydrochloride] | > 50 |  |
| Cc1onc(-c2ccccc2)c1-c1ccc(S(N)(=O)=O)cc1 [Valdecoxib] | > 50 |  |
| C=C(C)[C@@H]1CCC2=CCC[C@@H](C)[C@]2(C)C1 [Valencene] | > 90 |  |
| CC1=C2[C@H](/C=C(\C)C(=O)O)CC[C@@H](C)[C@H]2CC1 [Valerenic acid] | > 100 |  |
| CCCCC#N [Valeronitrile] | > 90 |  |
| CCCCC(=O)Cl [Valeryl chloride] | > 90 |  |
| CC(C)[C@H](N)C(=O)OCC(CO)OCn1cnc2c(=O)nc(N)[nH]c21 (stereo partly drawn) [Valganciclovir hydrochloride] | > 50 |  |
| C=C[C@]1(C)C[C@@H](OC(=O)CSC(C)(C)CNC(=O)[C@H](N)C(C)C)[C@]2(C)[C@H](C)CC[C@]3(CCC(=O)[C@H]32)[C@@H](C)[C@@H]1O [Valnemulin] | 2.37 |  |
| CCCC(CCC)C(=O)O [Valproic acid] | > 90 |  |
| CCCC(CCC)C(N)=O [Valpromide] | > 50 |  |

| SMILES | CC50 at 24 h (AC50 (uM) modified / 1000) [µM] | also measured |
| --- | --- | --- |
| CCCCC(=O)OCC(=O)[C@]1(O)Cc2c(O)c3c(c(O)c2[C@@H](O[C@H]2C[C@H](NC(=O)C(F)(F)F)[C@H](O)[C@H](C)O2)C1)C(=O)c1c(OC)cccc1C3=O [Valrubicin] | 8.11 |  |
| CCCCC(=O)N(Cc1ccc(-c2ccccc2-c2nnn[nH]2)cc1)[C@H](C(=O)O)C(C)C [Valsartan] | > 50 |  |
| CN[C@H](CC(C)C)C(=O)N[C@H]1C(=O)N[C@@H](CC(N)=O)C(=O)N[C@H]2C(=O)N[C@H]3C(=O)N[C@H](C(=O)N[C@H](C(=O)O)c4cc(O)cc(O)c4-c4cc3ccc4O)[C@H](O)c3ccc(c(Cl)c3)Oc3cc2cc(c3O[C@@H]2O[C@H](CO)[C@@H](O)[C@H](O)[C@H]2O[C@H]2C[C@](C)(N)[C@H](O)[C@H](C)O2)Oc2ccc(cc2Cl)[C@H]1O [Vancomycin hydrochloride] | > 50 |  |
| COc1cc2c(Nc3ccc(Br)cc3F)ncnc2cc1OCC1CCN(C)CC1 [Vandetanib] | 3.74 |  |
| COc1cc(C=O)ccc1OC(=O)C(C)C [Vanillin isobutyrate] | > 90 |  |
| COc1cc(C(=S)N2CCOCC2)ccc1O [Vanitiolide] | > 50 |  |
| O=C(O)CC/C=C\CC[C@@H]1[C@@H](N2CCCCC2)[C@@H](O)C[C@@H]1OCc1ccc(-c2ccccc2)cc1 [Vapiprost hydrochloride] | > 50 |  |
| CCCc1nc(C)c2c(=O)[nH]c(-c3cc(S(=O)(=O)N4CCN(CC)CC4)ccc3OCC)nn12 [Vardenafil citrate] | > 50 |  |
| c1cnc2cc3c(cc2n1)[C@@H]1CNC[C@H]3C1 [Varenicline tartrate] | > 50 |  |
| Clc1ccc(Nc2nnc(Cc3ccncc3)c3ccccc23)cc1 [Vatalanib] | > 50 |  |
| CC(=O)O[C@H]1C[C@@H]2CC[C@@H]3[C@H](CC[C@@]4(C)[C@H]3C[C@H]([N+]3(C)CCCCC3)[C@@H]4OC(C)=O)[C@@]2(C)C[C@@H]1N1CCCCC1 [Vecuronium bromide] | > 50 |  |
| COc1ccc(C(CN(C)C)C2(O)CCCCC2)cc1 (stereo not drawn) [Venlafaxine hydrochloride] | > 90 |  |
| C=CCN1CCCC1CNC(=O)c1cc(S(N)(=O)=O)cc(OC)c1OC (stereo not drawn) [Veralipride] | > 50 |  |
| COc1ccc(CCN(C)CCCC(C#N)(c2ccc(OC)c(OC)c2)C(C)C)cc1OC (stereo not drawn) [Verapamil hydrochloride] | 24.5 |  |
| COc1ccc(C=O)cc1OC [Veratraldehyde] |  | CC50 at 24 h (AC50 (uM) modified / 1000, Tox21_110001=Tox21_201566, viability, 1 nM T3 present, 24 h): > 90 µM |
| COc1ccc(/C=N/NC(=O)c2ccncc2)cc1OC [Verazide] | > 50 |  |
| COC[C@@H](c1ccc(C(F)(F)F)cc1)N1CCN(C2(C)CCN(C(=O)c3c(C)ncnc3C)CC2)C[C@@H]1C [Vicriviroc maleate] | > 50 |  |
| C=CC(N)CCC(=O)O (stereo not drawn) [Vigabatrin] | > 50 |  |
| CC[C@]12CCCN3CCc4c(n(c5ccccc45)[C@@](O)(C(=O)OC)C1)[C@@H]32 [Vincamine] | 65.8 |  |
| C=CC1(C)OC(=O)N(c2cc(Cl)cc(Cl)c2)C1=O (stereo not drawn) [Vinclozolin] | > 90 |  |
| CC[C@]1(O)C[C@H]2CN(CCc3c([nH]c4ccccc34)[C@@](C(=O)OC)(c3cc4c(cc3OC)N(C=O)[C@H]3[C@@](O)(C(=O)OC)[C@H](OC(C)=O)[C@]5(CC)C=CCN6CC[C@]43[C@@H]65)C2)C1 [Vincristine] | 0.12 |  |
| CC[C@]1(O)C[C@H]2CN(CCc3c([nH]c4ccccc34)[C@@](C(=O)OC)(c3cc4c(cc3OC)N(C)[C@H]3[C@@](O)(C(N)=O)[C@H](O)[C@]5(CC)C=CCN6CC[C@]43[C@@H]65)C2)C1 [Vindesine sulfate salt] | 0.425 |  |
| CCC1=C[C@@H]2CN(C1)Cc1c([nH]c3ccccc13)[C@@](C(=O)OC)(c1cc3c(cc1OC)N(C)[C@H]1[C@@](O)(C(=O)OC)[C@H](OC(C)=O)[C@]4(CC)C=CCN5CC[C@]31[C@@H]54)C2 [Vinorelbine tartrate] | 6.67 |  |
| C=COC(C)=O [Vinyl acetate] | > 90 |  |
